Ki data for 20 compounds are collected here from patent publication US20230159532A1, “PARATHYROID HORMONE (PTH) RECEPTOR ANTAGONISTS AND USES THEREOF” (Crinetics Pharmaceuticals, Inc., priority 2021, published 2023).

The assay concerns the target T1, human PTHR1 receptor (Homo sapiens, UniProt Q03431).
T1 construct: purchased Eurofins HTS030M
T1 sequence (Q03431 27-593): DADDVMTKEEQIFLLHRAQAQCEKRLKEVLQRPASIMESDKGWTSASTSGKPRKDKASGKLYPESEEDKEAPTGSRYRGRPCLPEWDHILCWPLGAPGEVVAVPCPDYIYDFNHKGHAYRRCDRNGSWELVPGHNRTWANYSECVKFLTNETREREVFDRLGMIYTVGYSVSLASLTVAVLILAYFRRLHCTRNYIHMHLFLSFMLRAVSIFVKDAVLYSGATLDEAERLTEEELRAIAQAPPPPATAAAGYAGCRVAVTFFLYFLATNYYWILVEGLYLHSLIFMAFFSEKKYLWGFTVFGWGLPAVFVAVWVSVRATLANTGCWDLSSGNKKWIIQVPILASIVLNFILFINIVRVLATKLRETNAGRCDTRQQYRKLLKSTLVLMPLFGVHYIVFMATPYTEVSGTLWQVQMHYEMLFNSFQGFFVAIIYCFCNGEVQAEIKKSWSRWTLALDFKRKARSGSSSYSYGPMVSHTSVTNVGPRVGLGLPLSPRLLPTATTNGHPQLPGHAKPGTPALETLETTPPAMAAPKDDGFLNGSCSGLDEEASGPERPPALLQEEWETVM
Briefly: Competitive antagonist binding assay for hPTH-R1 (radioactive competition binding, SPA beads). Conditions: human PTHR1 membranes, [125I]-[Nle8,18,Tyr34]-PTH(1-34) 0.2 nM, 90 minutes at room temperature; read-out: hPTHR1 Ki. The procedure: Competitive Antagonist Binding Assay Protocol for hPTH-R1 Antagonists:
The inhibition of binding to the human PTHR1 receptor was measured in a radioactive competition binding assay using the radiolabeled [^125I]-[NLE^8,18, TYR^34]-parathyroid hormone (1-34) ligand (PerkinElmer Cat# NEX244, custom synthesis) as the probe ligand for the receptor. Briefly, membranes from cells expressing the human PTHR1 (Eurofins Cat# HTS030M) were incubated with SPA beads (PerkinElmer Cat# RPNQ0001) in binding assay buffer [50 mM HEPES (Biopioneer Cat# C0113), 5 mM MgCl2 (Sigma Cat# M8266), 10 mM CaCl2 (Fisher Scientific Cat# BP510), 0.1% BSA (Fisher Scientific Cat# BP1600), 0.01% TritonX-100 (Bio-Rad Cat#161-0407), and protease inhibitors (Pierce Cat# A32963); pH 7.4]. Membranes bound to SPA bead were treated with various dilutions of compounds (final concentrations typically 0-10,000 nM), and 0.2 nM radiolabeled ligand in 96-well isoplates (PerkinElmer Cat#6005040) for 90 minutes at room temperature. The radioactive signal was detected using a MicroBetaTriLux 1450 LSC (PerkinElmer). All data manipulations to determine the Ki values were performed using GraphPad v8 (GraphPad, San Diego Calif.).

Regarding `CCN1C(=O)N(c2c(F)cc(NCCNC)cc2F)c2cc(Cl)ccc2-c2cc(F)cnc21` [1-14, 13-chloro-10-(2,6-difluoro-4-{[2-(methylamino)ethyl]amino}phenyl)-8-ethyl-4-fluoro-6,8,10-triazatricyclo[9.4.0.0^2,7]pentadeca-1(11),2(7),3,5,12,14-hexaen-9-one], the Ki (as a rule, a dissociation constant, usually derived from enzyme kinetics or from competition with a known ligand) was less than 100 nM. Then `CCN1C(=O)N(c2c(F)cc(NCCN[C@@H](CCSC)C(=O)O)cc2F)c2cc(C#N)ccc2-c2cc(Cl)cnc21` [1-233, (2S)-2-({2-[(4-{4-chloro-13-cyano-8-ethyl-9-oxo-6,8,10-triazatricyclo[9.4.0.0^2,7]pentadeca-1(11),2(7),3,5,12,14-hexaen-10-yl}-3,5-difluorophenyl)amino]ethyl}amino)-4-(methylsulfanyl)butanoic acid], with less than 100 nM. In the case of `CCN1C(=O)N(c2c(F)cc(NCCNCCCS(=O)(=O)O)cc2F)c2cc(C#N)ccc2-c2cc(Cl)cnc21` [1-175, 3-({2-[(4-{4-chloro-13-cyano-8-ethyl-9-oxo-6,8,10-triazatricyclo[9.4.0.0^2,7]pentadeca-1(11),2(7),3,5,12,14-hexaen-10-yl}-3,5-difluorophenyl)amino]ethyl}amino)propane-1-sulfonic acid], the Ki is less than 100 nM. Regarding `CCN1C(=O)N(c2c(F)cc(NCCNC)cc2F)c2cc(C#N)ccc2-c2cc(F)ccc21` [3-19, 8-(2,6-difluoro-4-{[2-(methylamino)ethyl]amino}phenyl)-10-ethyl-14-fluoro-9-oxo-8,10-diazatricyclo[9.4.0.0^2,7]pentadeca-1(11),2(7),3,5,12,14-hexaene-5-carbonitrile], the Ki was less than 100 nM. For `CCN1C(=O)N(c2c(F)cc(NCCNCCO)cc2F)c2cc(Cl)cc(C)c2-c2cc(F)cnc21` [1-31, 13-chloro-10-[2,6-difluoro-4-({2-[(2-hydroxyethyl)amino]ethyl}amino)phenyl]-8-ethyl-4-fluoro-15-methyl-6,8,10-triazatricyclo[9.4.0.0^2,7]pentadeca-1(11),2(7),3,5,12,14-hexaen-9-one], the Ki was less than 100 nM. Regarding `CCN1C(=O)N(c2c(F)cc(NCCN[C@H](C)CO)cc2F)c2cc(C#N)ccc2-c2cc(F)cnc21` [1-214, 10-{2,6-difluoro-4-[(2-{[(2R)-1-hydroxypropan-2-yl]amino}ethyl)amino]phenyl}-8-ethyl-4-fluoro-9-oxo-6,8,10-triazatricyclo[9.4.0.0^2,7]pentadeca-1(11),2(7),3,5,12,14-hexaene-13-carbonitrile], the Ki was less than 100 nM. On to `CNCCNc1cc(F)c(N2C(=O)N(C(C)C)c3ncc(Cl)cc3-c3ccc(C#N)cc32)c(F)c1` [1-91, 4-chloro-10-(2,6-difluoro-4-{[2-(methylamino)ethyl]amino}phenyl)-9-oxo-8-(propan-2-yl)-6,8,10-triazatricyclo[9.4.0.0^2,7]pentadeca-1(11),2(7),3,5,12,14-hexaene-13-carbonitrile], for which the Ki was less than 100 nM. As for `CCN1C(=O)N(c2c(F)cc(NCCNCCCC(=O)O)cc2F)c2cc(C#N)cc(F)c2-c2cc(Cl)cnc21` [1-101, 4-({2-[(4-{4-chloro-13-cyano-8-ethyl-15-fluoro-9-oxo-6,8,10-triazatricyclo[9.4.0.0^2,7]pentadeca-1(11),2(7),3,5,12,14-hexaen-10-yl}-3,5-difluorophenyl)amino]ethyl}amino)butanoic acid], the Ki is less than 100 nM. Turning to `CCC(CO)NCCNc1cc(F)c(N2C(=O)N(CC)c3ncc(Cl)cc3-c3ccc(C#N)cc32)c(F)c1` (centres unmarked) [1-139, 4-chloro-10-[2,6-difluoro-4-({2-[(1-hydroxybutan-2-yl)amino]ethyl}amino)phenyl]-8-ethyl-9-oxo-6,8,10-triazatricyclo[9.4.0.0^2,7]pentadeca-1(11),2(7),3,5,12,14-hexaene-13-carbonitrile], the Ki was less than 100 nM.

On to `CCN1C(=O)N(c2c(F)cc(NCCNCCCC(=O)O)cc2F)c2cc(Cl)ccc2-c2cc(C)cnc21` [1-25, 4-({2-[(4-{13-chloro-8-ethyl-4-methyl-9-oxo-6,8,10-triazatricyclo[9.4.0.0^2,7]pentadeca-1(11),2(7),3,5,12,14-hexaen-10-yl}-3,5-difluorophenyl)amino]ethyl}amino)butanoic acid], for which the Ki is less than 100 nM. Take `CCN1C(=O)N(c2c(F)cc(NCCNCCO)cc2F)c2cc(Cl)cc(C#N)c2-c2cc(F)cnc21` [1-134, 13-chloro-10-[2,6-difluoro-4-({2-[(2-hydroxyethyl)amino]ethyl}amino)phenyl]-8-ethyl-4-fluoro-9-oxo-6,8,10-triazatricyclo[9.4.0.0^2,7]pentadeca-1(11),2(7),3,5,12,14-hexaene-15-carbonitrile]: the Ki is less than 100 nM.

Consider `CCN1C(=O)N(c2c(F)cc(NCCNC3CCOCC3)cc2F)c2cc(Cl)ccc2-c2cc(C)cnc21` [1-27, 13-chloro-10-[2,6-difluoro-4-({2-[(oxan-4-yl)amino]ethyl}amino)phenyl]-8-ethyl-4-methyl-6,8,10-triazatricyclo[9.4.0.0^2,7]pentadeca-1(11),2(7),3,5,12,14-hexaen-9-one], for which the Ki is less than 100 nM. In the case of `CCN1C(=O)N(c2c(F)cc(NCCN)cc2F)c2cc(Cl)ccc2-c2c1ncc(Cl)c2C` [3-8, 10-{4-[(2-aminoethyl)amino]-2,6-difluorophenyl}-4,13-dichloro-8-ethyl-3-methyl-6,8,10-triazatricyclo[9.4.0.0^2,7]pentadeca-1(11),2(7),3,5,12,14-hexaen-9-one], the Ki is 100 to 1000 nM.

For the compound `CCN1C(=O)N(c2ncc(NCCNCCO)cc2F)c2cc(Cl)ccc2-c2cc(Cl)cnc21` [2-10, 4,13-dichloro-8-ethyl-10-[3-fluoro-5-({2-[(2-hydroxyethyl)amino]ethyl}amino)pyridin-2-yl]-6,8,10-triazatricyclo[9.4.0.0^2,7]pentadeca-1(11),2(7),3,5,12,14-hexaen-9-one], the Ki is less than 100 nM. In the case of `CCN1C(=O)N(c2c(F)cc(N3CC(NCCO)C3)cc2F)c2cc(C#N)ccc2-c2cc(F)cnc21` [1-124, 10-(2,6-difluoro-4-{3-[(2-hydroxyethyl)amino]azetidin-1-yl}phenyl)-8-ethyl-4-fluoro-9-oxo-6,8,10-triazatricyclo[9.4.0.0^2,7]pentadeca-1(11),2(7),3,5,12,14-hexaene-13-carbonitrile], the Ki was 100 to 1000 nM.

Regarding `CCN1C(=O)N(c2c(F)cc(N3CC(N)C3)cc2F)c2cc(Cl)ccc2-c2cc(Cl)cnc21` [1-44, 10-[4-(3-aminoazetidin-1-yl)-2,6-difluorophenyl]-4,13-dichloro-8-ethyl-6,8,10-triazatricyclo[9.4.0.0^2,7]pentadeca-1(11),2(7),3,5,12,14-hexaen-9-one], the Ki is less than 100 nM. As for `CNCCNc1cc(F)c(N2C(=O)N(C(C)C)c3ncc(F)cc3-c3ccc(Cl)cc32)c(F)c1` [1-105, 13-chloro-10-(2,6-difluoro-4-{[2-(methylamino)ethyl]amino}phenyl)-4-fluoro-8-(propan-2-yl)-6,8,10-triazatricyclo[9.4.0.0^2,7]pentadeca-1(11),2(7),3,5,12,14-hexaen-9-one], the figure is less than 100 nM; as for `CCN1C(=O)N(c2c(F)cc(NCCNCCO)cc2F)c2cc(Cl)cnc2-c2cc(F)cnc21` [3-25, 5-chloro-8-[2,6-difluoro-4-({2-[(2-hydroxyethyl)amino]ethyl}amino)phenyl]-10-ethyl-14-fluoro-3,8,10,12-tetraazatricyclo[9.4.0.0^2,7]pentadeca-1(11),2(7),3,5,12,14-hexaen-9-one], less than 100 nM. On to `CCN1C(=O)N(c2c(F)cc(NCCN[C@@H](CO)CC(=O)O)cc2F)c2cc(C#N)ccc2-c2cc(Cl)cnc21` [1-202, (3R)-3-({2-[(4-{4-chloro-13-cyano-8-ethyl-9-oxo-6,8,10-triazatricyclo[9.4.0.0^2,7]pentadeca-1(11),2(7),3,5,12,14-hexaen-10-yl}-3,5-difluorophenyl)amino]ethyl}amino)-4-hydroxybutanoic acid], for which the Ki is less than 100 nM. `CCN1C(=O)N(c2ccc(NCCNC)cc2)c2cc(OC)ccc2-c2cc(Cl)cnc21` [2-6, 4-chloro-8-ethyl-13-methoxy-10-(4-{[2-(methylamino)ethyl]amino}phenyl)-6,8,10-triazatricyclo[9.4.0.0^2,7]pentadeca-1(11),2(7),3,5,12,14-hexaen-9-one]: the Ki was less than 100 nM.
